{
  "source": "paper PMC3032679",
  "about": "(Journal of Translational Medicine, 2011)",
  "key": {"[1]": {"tested_on": "HEK293T cells", "experiment": "Cell viability assay, HEK293T", "assay_type": "cell-based, human", "conditions": "Antp-TPR; normal cells HEK293T; mean of three independent experiments each in triplicate; 72 h (Figure 2)", "quoted_text": "(§1) The following human tumor and normal cell lines were obtained from the American Type Culture Collection (ATCC): human breast cancer (BT-20, T47D, and MDA-MB-231), lung cancer (A549), kidney cancer (Caki-1), prostate cancer (LNCap), gastric cancer (OE19) and lung fibroblast (MRC5). Human pancreatic cancer cell line (BXPC3) was purchased from the European Collection of Cell Culture (ECACC). Human embryonic kidney cell line (HEK293T) and human normal pancreatic epithelial (PE) cell line ACBRI 515 were purchased from RIKEN cell bank and DS Pharma Biomedical, respectively. Cells were cultured in RPMI-1640 (BT-20, MDA-MB-231, T47D, LNCap, OE19, and BXPC3), MEM (MRC5 and A549), DMEM (HEK293T and Caki-1) or CSC (PE) containing 10% fetal bovine serum (FBS), 100 μg/ml penicillin, and 100 μg/ml streptomycin.\n(§2) Cells were seeded on to 96-well plates at 2000-3000 cells/well and incubated with the test peptide. After incubation, an assay for cell viability was carried out using Living Cell Count Reagent SF (Nacalai Tesque) according to the manufacturer's protocol. Absorbance was measured at a wavelength of 450 nm using a 96-well microplate reader (GE Healthcare).\n(§3) Data represent the mean ± SD from experiments performed in triplicate."}, "[2]": {"tested_on": "PE cells", "experiment": "Cell viability assay, PE", "assay_type": "cell-based, human", "conditions": "Antp-TPR; normal cells PE; mean of three independent experiments each in triplicate; 72 h (Figure 2)", "quoted_text": "as §1, §2, §3"}, "[3]": {"tested_on": "BT20 cells", "experiment": "Cell viability assay, BT20", "assay_type": "cell-based, human", "conditions": "Antp-TPR; breast cancer BT20; mean of three independent experiments each in triplicate; 72 h (Figure 2)", "quoted_text": "as §1, §2, §3"}, "[4]": {"tested_on": "MDA-MB-231 cells", "experiment": "Cell viability assay, MDA-MB-231", "assay_type": "cell-based, human", "conditions": "Antp-TPR; breast cancer MDA-MB-231; mean of three independent experiments each in triplicate; 72 h (Figure 2)", "quoted_text": "as §1, §2, §3"}, "[5]": {"tested_on": "BXPC3 cells", "experiment": "Cell viability assay, BXPC3", "assay_type": "cell-based, human", "conditions": "Antp-TPR; pancreatic cancer BXPC3; mean of three independent experiments each in triplicate; 72 h (Figure 2)", "quoted_text": "as §1, §2, §3"}, "[6]": {"tested_on": "A549 cells", "experiment": "Cell viability assay, A549", "assay_type": "cell-based, human", "conditions": "Antp-TPR; lung cancer A549; mean of three independent experiments each in triplicate; 72 h (Figure 2)", "quoted_text": "as §1, §2, §3"}, "[7]": {"tested_on": "liver, kidney, and lung", "experiment": "Histologic examination of organs (H & E)", "assay_type": "in vivo, athymic nude mice", "conditions": "5 mg/kg i.v., nine times, versus saline", "from_the_text": "(A) BXPC3 pancreatic cancer cells were implanted subcutaneously into athymic nude mice. […] Each group had six animals (n = 6), and experiments were repeated twice. Data are expressed as mean ± SD. […] Scale bars, 25 μm. (C) Histologic examination after treatment with Antp-TPR hybrid peptide."}, "[8]": {"experiment": "Observation of behavior and appetite after treatment", "assay_type": "in vivo", "conditions": "mice"}, "[9]": {"tested_on": "MRC5 cells", "conditions": "Antp-TPR; normal cells MRC5; mean of three independent experiments each in triplicate; 72 h (Figure 2)", "quoted_text": "as §1, §2, §3"}, "[10]": {"tested_on": "Caki-1 cells", "conditions": "Antp-TPR; renal cancer Caki-1; mean of three independent experiments each in triplicate; 72 h (Figure 2)", "quoted_text": "as §1, §2, §3"}, "[11]": {"tested_on": "LNcap cells", "conditions": "Antp-TPR; prostate cancer LNcap; mean of three independent experiments each in triplicate; 72 h (Figure 2)", "quoted_text": "as §1, §2, §3"}, "[12]": {"tested_on": "OE19 cells", "conditions": "Antp-TPR; gastric cancer OE19; mean of three independent experiments each in triplicate; 72 h (Figure 2)", "quoted_text": "as §1, §2, §3"}, "[13]": {"tested_on": "normal human cell lines (HEK293T, MRC5, and PE)", "experiment": "Cell viability assay, normal cell lines (panel)", "conditions": "identical concentrations, 72 h", "quoted_text": "as §1, §2, §3"}, "[14]": {"tested_on": "normal and cancer cell lines", "experiment": "Cell viability assay, normal and cancer cell lines (panel)", "assay_type": "cell-based, human", "conditions": "72 h", "quoted_text": "as §1, §2, §3"}, "[15]": {"tested_on": "interaction of Hsp90 with the TPR2A domain of Hop", "experiment": "SPR competition: Hsp90 binding to TPR2A domain of Hop", "assay_type": "biochemical, human", "conditions": "Hsp90 1 μM over immobilized TPR2A (5000 RU), peptide 1.4, 14, 140, 280, 700 μM and 1 mM", "description": "To confirm the presence of purified protein, SDS/PAGE was performed according to the method of Laemmli.\nSPR experiments were performed with the Biacore biosensor 3000 system as described previously. Human recombinant Hop, FKBP5, PP5, and purified TPR2A domain of Hop proteins were immobilized on the surface of CM5 sensor chips via N-hydroxysuccinimide and N-ethyl-N'-(dimethylaminopropyl)carbodiimide activation chemistry according to the manufacturer's instructions. Biotin-conjugated TPR peptide (biotin-TPR) was immobilized on the surface of streptavidin (SA) sensor chip. […] HBS-EP buffer (0.01 M Hepes/0.15 M NaCl/0.005% Tween 20/3 mM EDTA, pH 7.4) was used as a running buffer during the assay to inhibit non-specific binding. Data analysis was performed using BIA evaluation version 4.1 software. […] SPR signals obtained in the absence of competing peptides were used as a reference (100% binding) to normalize values obtained in the presence of peptides.\nThe SPR signal in the absence of competing peptides was used as a reference (100% binding)."}},
  "note": "Entries after “also recorded” stand apart in the source; their conditions may differ. Peptide text beside a SMILES is read from it.",
  "data": [
    {"compound": "CC[C@H](C)[C@H](NC(=O)[C@H](CCCNC(=N)N)NC(=O)[C@H](C)NC(=O)[C@H](Cc1ccc(O)cc1)NC(=O)[C@H](C)NC(=O)[C@H](CCCCN)NC(=O)[C@H](CCCCN)NC(=O)[C@H](CCCCN)NC(=O)[C@H](Cc1c[nH]c2ccccc12)NC(=O)[C@H](CCCCN)NC(=O)[C@H](CCSC)NC(=O)[C@H](CCCNC(=N)N)NC(=O)[C@H](CCCNC(=N)N)NC(=O)[C@H](CC(N)=O)NC(=O)[C@H](CCC(N)=O)NC(=O)[C@H](Cc1ccccc1)NC(=O)[C@H](Cc1c[nH]c2ccccc12)NC(=O)[C@@H](NC(=O)[C@H](CCCCN)NC(=O)[C@@H](NC(=O)[C@H](CCC(N)=O)NC(=O)[C@@H](N)CCCNC(=N)N)[C@@H](C)CC)[C@@H](C)CC)C(=O)NCC(=O)N[C@@H](CC(N)=O)C(=O)N[C@@H](CO)C(=O)N[C@@H](Cc1ccc(O)cc1)C(=O)N[C@@H](Cc1ccccc1)C(=O)N[C@@H](CCCCN)C(=O)O", "note": "[Antp-TPR] (H-RQIKIWFQNRRMKWKKKAYARIGNSYFK-OH)", "values": [
      {"measurement": "IC50", "setting": "[1]", "value": "> 100", "unit": "µM"},
      {"measurement": "IC50", "setting": "[2]", "value": "> 100", "unit": "µM"},
      {"measurement": "IC50", "setting": "[3]", "value": 37.4, "unit": "µM"},
      {"measurement": "IC50", "setting": "[4]", "value": 56.9, "unit": "µM"},
      {"measurement": "IC50", "setting": "[5]", "value": 44.8, "unit": "µM"},
      {"measurement": "IC50", "setting": "[6]", "value": 65.9, "unit": "µM"},
      {"measurement": "histologic examination of liver, kidney, and lung", "setting": "[7]", "value": "equally unremarkable in the saline or hybrid peptide-treated mice; also recorded: did not cause serious damages to the main organs (liver, kidney, and lung) and normal tissues"},
      {"measurement": "abnormal behaviors or losing of appetite", "setting": "[8]", "value": "any abnormal behaviors or losing of appetite after the treatment with this peptide was not also observed"},
      {"measurement": "IC50", "setting": "[9]", "value": "> 100", "unit": "µM"},
      {"measurement": "IC50", "setting": "[10]", "value": 47.9, "unit": "µM"},
      {"measurement": "IC50", "setting": "[11]", "value": 56.7, "unit": "µM"},
      {"measurement": "IC50", "setting": "[12]", "value": 33.4, "unit": "µM"},
      {"measurement": "effect on viability of normal cells", "setting": "[13]", "value": "did not apparently reduce the viability; also recorded: less cytotoxic to normal cells"}
    ]},
    {"compound": "CC[C@H](C)[C@H](NC(=O)[C@H](CCCNC(=N)N)NC(=O)[C@H](C)NC(=O)[C@H](Cc1ccc(O)cc1)NC(=O)[C@H](C)NC(=O)[C@@H](N)CCCCN)C(=O)NCC(=O)N[C@@H](CC(N)=O)C(=O)N[C@@H](CO)C(=O)N[C@@H](Cc1ccc(O)cc1)C(=O)N[C@@H](Cc1ccccc1)C(=O)N[C@@H](CCCCN)C(=O)O", "note": "[TPR]", "values": [
      {"measurement": "effect on viability / cytotoxicity", "setting": "[14]", "value": "no effect on normal or cancer cells; also recorded: no cytotoxicity"}
    ]},
    {"compound": "KAYAAAGNSYFK [TPR mutant 1]", "values": [
      {"measurement": "competition for interaction of Hsp90 with TPR2A domain of Hop", "setting": "[15]", "value": "did not demonstrate any protein interaction when analyzed at up to millimolar concentrations"}
    ]},
    {"compound": "KAYARIGNSGGG [TPR mutant 2, TPR with last three amino acids, Tyr-Phe-Lys, replaced with three Gly residues]", "values": [
      {"measurement": "competition for interaction of Hsp90 with TPR2A domain of Hop", "setting": "[15]", "value": "did not demonstrate any protein interaction when analyzed at up to millimolar concentrations"}
    ]},
    {"compound": "RKFSAAIGYNKY [TPR scramble, scramble peptide of TPR]", "values": [
      {"measurement": "competition for interaction of Hsp90 with TPR2A domain of Hop", "setting": "[15]", "value": "did not demonstrate any protein interaction when analyzed at up to millimolar concentrations"}
    ]},
    {"compound": "RQIKIWFQNRRMKWKKKAYAAAGNSYFK [Antp-TPR mutant 1]", "values": [
      {"measurement": "selective antitumor activity", "setting": "[14]", "value": "did not show selective antitumor activities"}
    ]},
    {"compound": "RQIKIWFQNRRMKWKKKAYARIGNSGGG [Antp-TPR mutant 2]", "values": [
      {"measurement": "selective antitumor activity", "setting": "[14]", "value": "did not show selective antitumor activities"}
    ]},
    {"compound": "RQIKIWFQNRRMKWKKRKFSAAIGYNKY [Antp-scramble, scramble peptide fused to Antennapedia helix III]", "values": [
      {"measurement": "effect on viability / cytotoxicity", "setting": "[14]", "value": "no effect on these cell lines"}
    ]}
  ]
}
